From US20130165368A1, “ANTIMICROBIAL COMPOUNDS” (priority 2010, published 2013)
In brackets after ≈: the same amount, converted by molar mass. Where two headings read alike, the source gives them in different places. One block for each molecule: values may come before it.

What was measured:
Assay type in all cases: cell-based
[1] = test system: Enterobacter cloacae; assay: MIC agar dilution, micro-organism 4 (11936); conditions: Enterobacter cloacae 11936
Experimental: (§1) Throughout the period of testing the microbial strains were subcultured and incubated for 18-20 hours at 37° C. on a weekly basis. Horse blood agar plates were used to sustain the micro-organisms both prior to and throughout testing. The alkoxylated alkanols listed in Table II below were obtained (these are obtainable from Sigma-Aldrich Company Ltd, Dorset, England), each having a GC purity of at least 97%.
(§2) Molar equivalent concentrations were used to allow comparison between compounds of differing molecular mass. Due to weighing difficulties, any compound in solid form was melted in a water bath prior to dilution. To make ten-times strength concentrations, which takes into account agar dilution, 0.0352 mmol of each compound was weighed into plastic universal bottles and 4 mL of sterile distilled water (SDW) was added. To produce a homogenous emulsion the universals were vortexed; once achieved the emulsions were serial diluted by adding 2 mL to 2 mL of SDW.
(§3) Myristyl alcohol and lauryl alcohol were re-weighed and dissolved in 25 μL of the polar solvent 1-methyl-2-pyrrolidone (M6762; Sigma-Aldrich) in sterile glass universals due to an inability to achieve an even suspension. To maintain an even emulsion in the presence of SDW 37.5 μL of the non-ionic detergent Tween 20 (P1379, Sigma-Aldrich) was also added. 3.9375 mL of SDW was added to these, to create a 4 mL volume; they were vortexed and diluted as before.
(§4) For every 100 mL of Isosensitest agar (IST) (CM0471; Oxoid, Basingstoke, England), 3.1 g of the IST powder was added to 100 mL SDW (as per manufacturer's instructions) and sterilised for 15 minutes at 121° C. Once sterilised, the molten agar was cooled to 50° C. in a water-bath. Subsequently 4.8 g of CCEY powder (BC2160; Bioconnections, Wetherby, England), also known as Brazier's medium, was added to 100 mL SDW for every 100 mL of agar needed. This was then sterilised for 15 minutes at 121° C. Once sterilised the molten agar was cooled to 50° C. in a water-bath and 4 mL of egg-yolk emulsion (S2073; TCS Biosciences Ltd, Buckingham, United Kingdom) and 1 mL of lysed defibrinated horse blood (HB035; TCS Biosciences Ltd, Buckingham, United Kingdom) were also added for every 100 mL needed. Horse blood lysis is achieved by dilution to half concentration with SDW; when fully lysed the mixture will turn dark red in colour.
(§5) 18 mL agar was added to each universal and then poured into sterile Petri dishes. This step creates a 1/10 dilution resulting in agar plates of the required strength. Control plates for each set of strains were created by adding 18 mL of agar to 2 mL of SDW.
(§6) Suspensions of each bacterial species were prepared with a density equal to that of a 0.5 McFarland standard using a densitometer. All suspensions were made using sterile distilled water and fresh 18-20 hour cultures. As a 0.5 McFarland standard contains 1.5×10^8 CFU/mL and the multipoint inoculators applies 1 μL spots of liquid, each bacterial suspension was diluted 1/15 (20 μL suspension to 280 μL sterile distilled water).
(§7) Bacterial suspensions were prepared from fresh 18-24 hour cultures as previously described. 1 μL of each strain was inoculated onto all 100 agar plates containing a different chemical concentration and the 2 control plates. This was done using a multipoint inoculator which inoculates 20 strains per plate. All plates were incubated for 22 hours at 37° C. in aerobic conditions.
(§8) Each plate was examined for bacterial growth after 22 and 48 hours, with each being incubated in between examinations. A positive result was recorded as growth of ≧10 colonies. A negative result was recorded as growth of <10 colonies as this is equivalent to 99.9% inhibition. The lowest concentration of chemical that inhibited growth was recorded as the MIC. The results are recorded in Table IV below, where the numbers are quoted in mmol/L.
(§9) Further experiments have also been conducted to determine the MIC of a number of other compositions as follows. […]

[2] = test system: Serratia marcescens; assay: MIC agar dilution, micro-organism 5 (10211); conditions: Serratia marcescens 10211
Experimental: as §1, §2, §3, §4, §5, §6, §7, §8, §9

[3] = test system: Salmonella typhimurium; assay: MIC agar dilution, micro-organism 6 (74); conditions: Salmonella typhimurium 74
Experimental: as §1, §2, §3, §4, §5, §6, §7, §8, §9

[4] = test system: Acinetobacter baumannii; assay: MIC agar dilution, micro-organism 10 (19606); conditions: Acinetobacter baumannii 19606
Experimental: as §1, §2, §3, §4, §5, §6, §7, §8, §9

[5] = test system: Pseudomonas aeruginosa; assay: MIC agar dilution, micro-organism 7 (10662); conditions: Pseudomonas aeruginosa 10662
Experimental: as §1, §2, §3, §4, §5, §6, §7, §8, §9

[6] = test system: Burkholderia cepacia; assay: MIC agar dilution, micro-organism 9 (1222); conditions: Burkholderia cepacia 1222
Experimental: as §1, §2, §3, §4, §5, §6, §7, §8, §9

[7] = test system: Klebsiella pneumoniae; assay: MIC agar dilution, micro-organism 2 (9528); conditions: Klebsiella pneumoniae 9528
Experimental: as §1, §2, §3, §4, §5, §6, §7, §8, §9

[8] = test system: Yersinia enterocolitica; assay: MIC agar dilution, micro-organism 8 (11176); conditions: Yersinia enterocolitica 11176
Experimental: as §1, §2, §3, §4, §5, §6, §7, §8, §9

[9] = test system: Stenotrophomonas maltophilia; assay: Additional antibacterial data, MIC (Table XII); conditions: 24 hrs at 37° C.; for MIC (%) volume/volume: Stenotrophomonas maltophilia 10257, inoculum 10000 cfu/spot
Experimental: (§10) Using the protocols outlined in the example above, the inventors further investigated the antibacterial effects of representative alkoxylated alkanol compounds. The inoculum was 10000 cfu/spot; inclubation was for 24 hrs at 37° C.

[10] = test system: Staphylococcus aureus; assay: Additional antibacterial data, MIC (Table XII), Gram positive control; conditions: Staphylococcus aureus 470273M (control); inoculum 10000 cfu/spot; 24 hrs at 37° C.
Experimental: as §10

[11] = test system: Staphylococcus aureus(MRSA); assay: as above; conditions: Staphylococcus aureus(MRSA) 380022E (control); inoculum 10000 cfu/spot; 24 hrs at 37° C.
Experimental: as §10

[12] = test system: A549 (ATCC CCL-185) cells
Experimental: A549 (ATCC CCL-185) cells were plated onto a 96 well and allowed to attach overnight, the wells were washed, and 100 ul of DMEM (Gibco) with 2% FCS was added. To the first column of the data set below, 100 μl of neat virus was added. The virus used was Respiratory Syncytial Virus (RSV), strain A2, a common laboratory strain which retains the ability to infect animal models.
A two serial dilution was performed (up to column 10), lanes 11+12 were uninfected controls, but relevant lanes contained the appropriate concentration of Laureth 4, laureth 4 was added 1 hour after virus absorption. The alkoxylated alkanol compounds used in the experiment were ‘high purity’, i.e. having a GC purity of at least 97%.
After 96 hours incubation at 33° C. the medium was removed, cell washed with PBS and stained with methylene blue (Gibco). Cytopathic effect (cpe) was noted visually and wells marked either as positive or negative when view under a light microscope at 4× magnification.

MIC ([1]; 22 hrs, read-out: MIC): > 880 µM
MIC ([1]; 48 hrs, read-out: MIC): > 880 µM
MIC ([2]; 22 hrs, read-out: MIC): > 880 µM
MIC ([2]; 48 hrs, read-out: MIC): > 880 µM
MIC ([3]; Salmonella enterica, 22 hrs, read-out: MIC): 880 µM (≈ 213 µg/mL)
MIC ([3]; Salmonella enterica, 48 hrs, read-out: MIC): 880 µM (≈ 213 µg/mL)
MIC ([4]; 22 hrs, read-out: MIC): > 880 µM
MIC ([4]; 48 hrs, read-out: MIC): > 880 µM
MIC ([5]; 22 hrs, read-out: MIC): > 880 µM
MIC ([5]; 48 hrs, read-out: MIC): > 880 µM
MIC ([6]; 22 hrs, read-out: MIC): > 880 µM
MIC ([6]; 48 hrs, read-out: MIC): > 880 µM
MIC ([7]; 22 hrs, read-out: MIC): 880 µM (≈ 213 µg/mL)
MIC ([7]; 48 hrs, read-out: MIC): 880 µM (≈ 213 µg/mL)
MIC ([8]; 22 hrs, read-out: MIC): > 880 µM
MIC ([8]; 48 hrs, read-out: MIC): > 880 µM
SMILES: CCCCCCCCCCCCCCCCO [C0, 1-Hexadecanol, reference compound]

SMILES: CCCCCCCCCCCCCOCCOCCOCCOCCOCCOCCO [C13E6, polyoxyethylene (6) tridecyl alcohol]
MIC ([1]; 22 hrs): >880 µM
MIC ([1]; 48 hrs): >880 µM
MIC ([2]; 22 hrs): >880 µM
MIC ([2]; 48 hrs): >880 µM
MIC ([3]; 22 hrs): >880 µM
MIC ([3]; 48 hrs): >880 µM
MIC ([4]; 22 hrs): >880 µM
MIC ([4]; 48 hrs): >880 µM
MIC ([5]; 22 hrs): >880 µM
MIC ([5]; 48 hrs): >880 µM
MIC ([6]; 22 hrs): >880 µM
MIC ([6]; 48 hrs): >880 µM
MIC ([7]; 22 hrs): >880 µM
MIC ([7]; 48 hrs): >880 µM
MIC ([8]; 22 hrs): >880 µM
MIC ([8]; 48 hrs): >880 µM

SMILES: CCCCCCCCCCCCOCCO [L1, Ethylene Glycol Monododecyl Ether]
MIC (%) volume/volume [9]: 0.5 % volume/volume
MIC (%) volume/volume [10]: 0.25 % volume/volume
MIC (%) volume/volume [11]: 0.25 % volume/volume

SMILES: CCCCCCCCCCCCOCCOCCOCCOCCO [L4, Tetraethylene Glycol Monododecyl Ether]
MIC (%) volume/volume [9]: 0.06 % volume/volume
susceptibility of Stenotrophomonas maltophilia ([9]; relatively low concentrations, 10000 cfu/spot): susceptible
MIC (%) volume/volume [10]: 0.03 % volume/volume
MIC (%) volume/volume [11]: 0.03 % volume/volume
state of treated, uninfected cells [12]: healthy and showed little cellular apathy
